Experimental data published in patent US12582670B2, “Lignin solvation using aqueous biologically compatible buffers” (priority 2019, dated 2026).
“Also recorded” adds a separate entry of the source.

Tests used:
[1] = test system: S. aureus LAC-13C (methicillin-resistant, MRSA); experiment: β-lactam disk diffusion susceptibility test; type: cell-based, Staphylococcus aureus; details: disks 1 μg oxacillin, 10 μg ampicillin, 10 μg penicillin, 24 h
Description: (§1) Example 9. β-lactam disk diffusion susceptibility test. […] Methicillin-susceptible and methicillin-resistant S. aureus, UAMS-1 and LAC-13C, respectively, were streaked for isolation on tryptic soy agar (TSA) plates and incubated for 24 hours at 37° C. Overnight cultures were prepared by picking a single colony of each strain from its plate and adding to separate 3 mL sterile tryptic soy broth (TSB) in a 5 mL culture tube and incubating 14-16 h at 37° C. and 250 rpm. Next, the optical density at 600 nm (OD600) was measured to prepare fresh 50 mL cultures with OD600=0.1 to be grown for 2-3 hours at 37° C. and 250 rpm. Cultures were pelleted by centrifugation at 4500 rpm, then resuspended and concentrated in 500 μL sterile 1× Hank's Balanced Salt Solution (HBSS). […] To achieve lawn-style growth, cells were spread across the plates with sterile glass beads.

[2] = test system: S. aureus UAMS-1 (methicillin-sensitive, MSSA); experiment: β-lactam disk diffusion susceptibility test; type: cell-based, Staphylococcus aureus; details: disks 0.2 μg oxacillin, 2 μg ampicillin, 2 μg penicillin, 24 h
Description: as §1

[3] = test system: S. agalactiae (NCTC 8181); experiment: β-lactam disk diffusion susceptibility test with and without lignin; type: cell-based, Streptococcus agalactiae; details: disks 10 μg penicillin, 10 μg ampicillin, 30 μg amoxicillin+clavulanic acid, 24 h
Description: (§2) Example 13. Sensitivity of S. agalactiae and S. uberis to β-lactams and lignin. Type strains of S. agalactiae and S. uberis Diemhofer (NCTC 8181 and NCTC 3858, respectively) were obtained from the American Type Culture Collection (ATCC) as lyophilized pellets. Cells were revived by resuspension in 5 mL Todd Hewitt broth (THB, 3% w/v) and static incubation for 24 h at 37° C. Culture OD600 was measured and the volume to achieve OD600=0.025 was added to 50 mL fresh THB in 250 mL Erlenmeyer flasks and grown for 2 hours; S. agalactiae cultures were supplemented with 1 μM hemin and 10 μM menaquinone and grown at 37° C. and 200 rpm, while S. uberis was grown statically at 37° C. Cultures were centrifuged at 4500 rpm for 10 minutes. Due to differences in pellet sizes, S. agalactiae pellets were resuspended in 1 mL Hank's Balanced Salt Solution (HBSS), and S. uberis pellets were resuspended in 400 μL HBSS in order to normalize the OD600 of the two cell suspensions. […] Paper disks containing 10 μg penicillin, 10 μg ampicillin, and 30 μg amoxicillin+clavulanic acid (Oxoid, Basingstoke, UK) were placed on the agar, then incubated for 24 h at 37° C. Plates were inspected for zones of clearance around the disks indicating susceptibility.

[4] = test system: S. uberis Diemhofer (NCTC 3858); experiment: as above; type: cell-based, Streptococcus uberis; details: disks 10 μg penicillin, 10 μg ampicillin, 30 μg amoxicillin+clavulanic acid, 24 h
Description: as §2

S. aureus UAMS-1 = experiment: Tunicamycin disk diffusion assay; type: cell-based, Staphylococcus aureus; details: 2 μg disk, 24 h
Description: Tunicamycin disk diffusion assay: S. aureus UAMS-1 cultures were prepared by inoculating separate 15-mL culture tubes containing 3 mL sterile 3% (w/v) TSB with a single colony and incubated 14-16 h at 37° C. while shaking at 250 rpm. Fresh 50-mL cultures with an initial OD600=0.025 were prepared and incubated for 2 h at 37° C. and 250 rpm. Cells were collected by centrifugation at 4,500 rpm and resuspended in 500 μL sterile Hank's Balanced Salt Solution (HBSS; Corning, Corning, NY). […] Cells were spread across the plates with sterile glass beads and the plates were left open to dry in a clean laminar-flow hood for 10-15 min. […] Three biological replicates were analyzed.

[5] = TSA with 50 mM MOPS and 5 mg/mL lignin
[6] = TSA without lignin (50 mM MOPS)
[7] = in the presence of 5 mg/mL lignin

| Compound | susceptibility (zone of clearance around disk) [1, 5] | susceptibility (zone of clearance around disk) [2, 5] | susceptibility (zone of clearance around disk) [2, 6] | sensitivity (zone of clearance around disk) [3, 7] | sensitivity (zone of clearance around disk) ([3]; without lignin (50 mM MOPS)) | sensitivity (zone of clearance around disk) [4, 7] | sensitivity (zone of clearance around disk) ([4]; without lignin (50 mM MOPS)) | susceptibility (zone of clearance around disk) [1, 6] | zone of clearance around disk (S. aureus UAMS-1; TSA with 50 mM MOPS + 5 mg/mL lignin) | zone of clearance around disk (S. aureus UAMS-1; TSA with 50 mM MOPS + 5 mg/mL lignin, listed as Tunicamycin) | zone of clearance around disk (S. aureus UAMS-1; TSA with 50 mM MOPS, no lignin) | zone of clearance around disk (S. aureus UAMS-1; TSA with 50 mM MOPS, no lignin, listed as Tunicamycin) |
| --- | --- | --- | --- | --- | --- | --- | --- | --- | --- | --- | --- | --- |
| CC1(C)S[C@@H]2[C@H](NC(=O)[C@H](N)c3ccccc3)C(=O)N2[C@H]1C(=O)O [ampicillin] | increased sensitivity/susceptibility | at least partially sensitive/susceptible; also recorded: increased sensitivity/susceptibility | completely or nearly completely resistant; also recorded: moderately resistant | highly sensitive | some susceptibility; also recorded: moderately sensitive | highly sensitive | some susceptibility; also recorded: moderately sensitive |  |  |  |  |  |
| Cc1onc(-c2ccccc2)c1C(=O)N[C@@H]1C(=O)N2[C@@H]1SC(C)(C)[C@@H]2C(=O)O [oxacillin] | sensitive; also recorded: increased sensitivity/susceptibility | increased sensitivity/susceptibility | sensitive/susceptible |  |  |  |  | completely resistant |  |  |  |  |
| amoxicillin+clavulanic acid |  |  |  | highly sensitive | some susceptibility; also recorded: moderately sensitive | highly sensitive | some susceptibility; also recorded: moderately sensitive |  |  |  |  |  |
| penicillin | increased sensitivity/susceptibility | at least partially sensitive/susceptible; also recorded: increased sensitivity/susceptibility | completely or nearly completely resistant; also recorded: moderately resistant | highly sensitive | some susceptibility; also recorded: moderately sensitive | highly sensitive | some susceptibility; also recorded: moderately sensitive |  |  |  |  |  |
| tunicamycin |  |  |  |  |  |  |  |  | susceptibility | a clearance zone was observed | tolerance of the antibiotic | No clearance zone was observed |
